# Assay results taken from US20130017570A1, “METHOD FOR MONITORING STATE OF DIFFERENTIATION IN STEM CELL” (OLYMPUS CORPORATION, priority 2010, published 2013).
# Tested on: Nanog gene expression in mouse ES cells constitutively expressing Nanog-Eluc
# Test: Luminescence imaging of Nanog-Eluc expression in ES cell colonies under FGF stimulus and FGF signal inhibitors
# Format: cell-based
# Settings: FGF 10 ng/ml, medium without LIF, before inhibitor addition
# Source text: Mouse ES cells used in Example 1-2 were used, which is constitutively expressing Nanog-Eluc. The cells were differentiation-induced with FGF (Fibroblast Growth Factor), and then observed under condition with signal transduction inhibitor. FGF signal is a signal transduction which induces stem cell differentiation, and it has been reported that the stem cell returns from the differentiated state to the undifferentiated state by the action of an inhibitor (T. Kunath et al., Development 134, pp. 2895-2902, 2007). The preparation method of ES cells is in the same manner as in Example 1-2. […]
# D-luciferin (manufactured by Promega KK: final concentration of 500 μM) was added for luminescence observation, FGF (FGFβ human, PeproTech Inc.) was added so as to have a final concentration of 10 ng/ml, and then the mouse ES cells were observed using a luminescence microscope LV200 (manufactured by Olympus Corporation). As the luminescence observation conditions, the luminescence images of the mouse ES cells were taken under 55 min exposure at 1 hour intervals, thereby observing Nanog gene expression level. […]
# After the time-lapse observation, the captured images were saved, and numerical data was analyzed from the observation images using an image analysis software “AQUACOSMOS (manufactured by Hamamatsu Photonics K.K.)”, and the analyzed numerical data was shown as graph data. […]
substance,measurement,value
"FGF: Fibroblast Growth Factor (FGFβ human, PeproTech Inc.) used for differentiation induction","Nanog expression (luminescence intensity) when adding FGF, expression pattern C colonies",not seen
